Laboratory results from paper PMC9538320 (Protein Science : A Publication of the Protein Society, 2022).

Target: SARS-CoV-2 protein 7a ectodomain (protein 7a ECD) (Severe acute respiratory syndrome coronavirus 2, UniProt P0DTC7)
Experiment: biochemical

Chain of SARS-CoV-2 protein 7a ectodomain (protein 7a ECD) (P0DTC7 16-95): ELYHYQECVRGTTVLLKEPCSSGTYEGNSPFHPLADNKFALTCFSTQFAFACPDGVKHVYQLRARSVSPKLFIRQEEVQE

Compound: C=CC1=C(C)C2=Cc3c(C=C)c(C)c4[n]3[Fe]([Cl])[n]3c(c(C)c(CCC(=O)O)c3=CC3=NC(=C4)C(C)=C3CCC(=O)O)=CC1=N2 [heme]
- Kd: 469 ± 27 nM
